# Where two headings read alike, the source gives them in different places.
# Legend:
# [1] = In vivo rat model: plasma anti Xa after buccal dosing of gel; design: species or system rat (Wistar preferred); conditions: Gel Formulation 11
# Protocol: The in vivo delivery of heparinic anticoagulant from a gel is determined using a rat model.
# This method uses rats of 220 to 500 grams in weight. Wistar rats are the preferred strain. The rats are anesthetized with ether and then a 2 cm vertical incision is made first through the skin and then through the underlying muscle. The esophagus is isolated and tied off with a surgical ligature. The incision is closed with a surgical stapler. After surgery the rats are dosed with the gel by syringe administration with half of the total dose in each cheek. The rats are slightly reanesthesized for dosing and blood withdrawal. Blood samples are withdrawn at 0, 1, 2, 3 and 4 hours post dose. Heparinic anticoagulant concentrations in plasma are determined by an enzymatic method measuring anti Xa using a test kit (Stachrom™ Heparin from Diagnostica Stago, 9 rue des Freres Chausson, 92600 Asnieres-sur Seine, France). Results are reported as the number of anti Xa units per mL of plasma.
# A formulation was prepared according to the method set forth above in connection with Gel Formulation 1, except that the sodium dodecyl sulfate was eliminated and the penetration enhancers shown in Table 15 below were incorporated at 2, 5 and/or 10 percent by weight based on the total weight of the gel formulation. Low molecular weight heparin (mean molecular weight from 3450 to 4950 daltons with anti Xa of 65 to 144 units/mg, Bioiberica, Barcelona, Spain) was incorporated at concentrations of 10, 25 and 50 mg of heparin per mL of gel. In vivo delivery was determined using the rat model described above. Each rat was dosed with 0.2 mL of gel formulation to provide the dose of heparin shown in Table 15, wherein "n" designates the number of rats studied. The values obtained were used to calculate the promoting effect (P for each formulation. The promoting effect was calculated using the equation given below: [formula] where: Cmax (H) is equal to the maximal anti Xa activity in plasma after heparin administration without enhancer and Cmax (H+E) is equal to the maximal anti Xa activity in plasma after heparin administration with the enhancer. The results are shown in Table 15 below.
# Xa = conditions: cited from earlier work
# [2] = enhancer 5 wt%, heparin 5 mg/rat
molecule,measurement,setting,value
CCCCCCCCCCCCOS(=O)(=O)[O-].[Na+] [Sodium dodecyl sulfate],promoting effect (P %),[1]; [2],+189%
O=C1CCCN1 [Pyrrolidone],promoting effect (P %),[1]; [2],-31%
C[C@H](CCC(=O)NCCC[N+](C)(C)CCCS(=O)(=O)[O-])[C@H]1CC[C@H]2[C@@H]3[C@H](O)C[C@@H]4C[C@H](O)CC[C@]4(C)[C@H]3C[C@H](O)[C@]12C [CHAPS],promoting effect (P %),[1]; [2],+2%
C[C@H](CCC(=O)O)[C@H]1CC[C@H]2[C@@H]3CC[C@@H]4C[C@H](O)CC[C@]4(C)[C@H]3C[C@H](O)[C@]12C [Sodium deoxycholate],promoting effect (P %),"[1]; enhancer 2 wt%, heparin 5 mg/rat",+117%
same,promoting effect (P %),[1]; [2],+122%
Low molecular weight heparin,anti Xa,"Xa; mean molecular weight 3450 daltons, Bioiberica",138 units/mg
same,anti Xa,"Xa; mean molecular weight 5300 daltons, Bioiberica",144 units/mg
same,anti Xa,"Xa; molecular weight 3949, Bioiberica",113 units/mg
CCCCCCCCCCCCCCCC(=O)OC(CC(=O)O)C[N+](C)(C)C (racemic) [Palmitoyl DL carnitine chloride],promoting effect (P %),"[1]; enhancer 10 wt%, heparin 10 mg/rat",+142%
